The values that follow are results of earlier work, collected in patent US8512311B2, “Augmentation of intraluminal microvessel formation to facilitate guide wire crossing in chronic total occlusions” (priority 2004, dated 2013).

This series has as its system venous thrombi. Conditions: injection into venous thrombi, rat model, compared to controls.

Regarding “vascular endothelial growth factor [VEGF protein]”, the “increase in thrombus recanalization” value was “two-fold”.
